According to ChEMBL document CHEMBL5465560, “Selectivity Literature for EUbOPEN Chemogenomic Library” (2024):

Tests used:
[1] = biological target: High affinity nerve growth factor receptor (Homo sapiens, UniProt P04629); experiment: Selectivity interaction (KinomeScan (DiscoverX)) EUB0001049a NTRK1; conditions: at 1 µM
[2] = biological target: T1, Diacylglycerol kinase eta (Homo sapiens) (UniProt Q86XP1); experiment: Selectivity interaction (Kinase panel (KiNativ target engagement assay in Jurkat cells)) EUB0001635a DGKH; type: cell-based; conditions: Selectivity number of off-targets 0.0, Selectivity number of targets 233.0, Source Knowledge https://www.sciencedirect.com/science/article/pii/S2451945619300674?via%3Dihub, at 1 µM
T1 sequence (whole entry): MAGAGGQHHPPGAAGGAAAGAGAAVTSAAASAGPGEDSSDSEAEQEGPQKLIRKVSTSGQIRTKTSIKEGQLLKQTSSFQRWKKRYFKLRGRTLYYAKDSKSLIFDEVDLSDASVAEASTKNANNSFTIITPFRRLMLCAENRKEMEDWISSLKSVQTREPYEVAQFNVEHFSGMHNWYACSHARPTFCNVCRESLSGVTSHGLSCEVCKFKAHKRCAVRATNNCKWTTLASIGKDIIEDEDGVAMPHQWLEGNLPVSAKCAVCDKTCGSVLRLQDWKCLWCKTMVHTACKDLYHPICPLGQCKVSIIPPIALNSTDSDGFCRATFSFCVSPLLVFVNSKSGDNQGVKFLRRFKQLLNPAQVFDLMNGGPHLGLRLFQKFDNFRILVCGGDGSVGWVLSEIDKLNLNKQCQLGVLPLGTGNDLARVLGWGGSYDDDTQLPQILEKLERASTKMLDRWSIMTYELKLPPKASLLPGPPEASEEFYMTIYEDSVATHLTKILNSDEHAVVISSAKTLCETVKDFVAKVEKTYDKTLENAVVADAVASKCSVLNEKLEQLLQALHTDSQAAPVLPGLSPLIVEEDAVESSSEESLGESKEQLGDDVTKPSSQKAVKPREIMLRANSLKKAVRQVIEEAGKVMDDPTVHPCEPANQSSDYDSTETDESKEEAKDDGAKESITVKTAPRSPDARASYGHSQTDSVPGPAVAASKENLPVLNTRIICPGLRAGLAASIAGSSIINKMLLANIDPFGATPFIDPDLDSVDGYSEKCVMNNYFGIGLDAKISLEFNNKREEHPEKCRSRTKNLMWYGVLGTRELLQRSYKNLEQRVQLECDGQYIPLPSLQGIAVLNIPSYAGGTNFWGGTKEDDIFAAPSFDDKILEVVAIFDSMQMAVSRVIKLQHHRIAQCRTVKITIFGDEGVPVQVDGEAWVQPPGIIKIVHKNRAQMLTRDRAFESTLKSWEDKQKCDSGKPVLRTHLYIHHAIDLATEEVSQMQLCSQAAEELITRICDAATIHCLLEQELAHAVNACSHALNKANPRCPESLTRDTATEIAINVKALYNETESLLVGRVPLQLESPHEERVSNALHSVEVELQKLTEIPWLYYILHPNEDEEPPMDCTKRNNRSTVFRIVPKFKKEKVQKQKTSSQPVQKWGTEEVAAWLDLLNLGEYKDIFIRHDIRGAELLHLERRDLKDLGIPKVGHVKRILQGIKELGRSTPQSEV

[3] = biological target: T2, Dual specificity mitogen-activated protein kinase kinase 6 (Homo sapiens) (UniProt P52564); experiment: Selectivity interaction (ActivX KiNativ screen (kinase selectivity in THP-1 cell lysates)) EUB0000639a MAP2K6; type: subcellular; conditions: lysate, at 0.01 µM
T2 sequence (whole entry): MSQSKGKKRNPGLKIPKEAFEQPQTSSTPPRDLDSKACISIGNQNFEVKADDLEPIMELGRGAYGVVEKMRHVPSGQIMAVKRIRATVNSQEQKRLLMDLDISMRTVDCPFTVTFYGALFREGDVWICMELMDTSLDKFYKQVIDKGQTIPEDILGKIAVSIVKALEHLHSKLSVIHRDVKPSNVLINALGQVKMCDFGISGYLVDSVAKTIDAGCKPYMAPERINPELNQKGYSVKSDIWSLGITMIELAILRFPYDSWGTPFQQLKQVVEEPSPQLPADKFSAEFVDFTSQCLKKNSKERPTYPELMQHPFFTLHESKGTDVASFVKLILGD

[4] = biological target: T3, Dual specificity mitogen-activated protein kinase kinase 5 (Homo sapiens) (UniProt Q13163); experiment: Selectivity interaction (ActivX KiNativ screen (kinase selectivity in THP-1 cell lysates)) EUB0000639a MAP2K5; type: subcellular; conditions: lysate
T3 sequence (whole entry): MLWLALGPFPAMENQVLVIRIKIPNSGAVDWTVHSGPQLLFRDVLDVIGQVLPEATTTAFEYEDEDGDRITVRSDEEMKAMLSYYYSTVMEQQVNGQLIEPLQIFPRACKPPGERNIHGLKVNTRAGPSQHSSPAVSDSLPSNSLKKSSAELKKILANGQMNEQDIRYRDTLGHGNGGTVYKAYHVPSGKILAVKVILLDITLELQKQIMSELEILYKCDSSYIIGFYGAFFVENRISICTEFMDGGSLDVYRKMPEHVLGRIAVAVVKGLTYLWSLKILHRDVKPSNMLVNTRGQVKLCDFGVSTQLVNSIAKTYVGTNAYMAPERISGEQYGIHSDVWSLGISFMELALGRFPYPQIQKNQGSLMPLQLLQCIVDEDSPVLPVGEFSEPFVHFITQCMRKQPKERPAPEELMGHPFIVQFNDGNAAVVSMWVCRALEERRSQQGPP

[5] = biological target: Fibroblast growth factor receptor 2 (Homo sapiens) (UniProt P21802); experiment: Selectivity interaction (Ambit KINOMEscan and KiNATiv profiling in Jurkat cells) EUB0000090b FGFR2; type: cell-based; conditions: at 1 µM
Fibroblast growth factor receptor 2 (Homo sapiens), sequence (P21802 22-821 limits assumed): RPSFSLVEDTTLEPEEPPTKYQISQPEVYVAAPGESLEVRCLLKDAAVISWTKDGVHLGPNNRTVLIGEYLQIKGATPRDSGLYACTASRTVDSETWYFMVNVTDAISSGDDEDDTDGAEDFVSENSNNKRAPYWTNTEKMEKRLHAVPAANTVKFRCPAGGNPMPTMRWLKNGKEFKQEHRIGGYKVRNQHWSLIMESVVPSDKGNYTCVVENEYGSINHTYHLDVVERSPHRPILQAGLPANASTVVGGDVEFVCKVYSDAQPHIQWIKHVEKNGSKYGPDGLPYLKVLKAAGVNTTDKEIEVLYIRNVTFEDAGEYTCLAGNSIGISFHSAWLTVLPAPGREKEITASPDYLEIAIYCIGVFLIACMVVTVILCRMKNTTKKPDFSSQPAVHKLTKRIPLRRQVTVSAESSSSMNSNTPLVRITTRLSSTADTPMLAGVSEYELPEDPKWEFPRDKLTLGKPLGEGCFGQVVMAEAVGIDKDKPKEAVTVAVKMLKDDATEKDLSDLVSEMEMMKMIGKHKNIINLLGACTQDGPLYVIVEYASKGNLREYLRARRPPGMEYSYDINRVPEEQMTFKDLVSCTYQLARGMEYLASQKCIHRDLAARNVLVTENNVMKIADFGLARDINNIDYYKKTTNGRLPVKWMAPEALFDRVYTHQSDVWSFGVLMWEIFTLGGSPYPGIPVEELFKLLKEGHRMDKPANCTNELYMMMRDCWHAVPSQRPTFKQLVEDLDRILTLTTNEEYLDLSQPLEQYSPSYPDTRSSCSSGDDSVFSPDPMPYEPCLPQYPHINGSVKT

[6] = biological target: Serine/threonine-protein kinase N1 (Homo sapiens, UniProt Q16512); experiment: Selectivity interaction (KinomeScan (DiscoverX)) EUB0001619a PKN1; conditions: at 1 µM
Serine/threonine-protein kinase N1, sequence (Q16512 2-942 limits assumed): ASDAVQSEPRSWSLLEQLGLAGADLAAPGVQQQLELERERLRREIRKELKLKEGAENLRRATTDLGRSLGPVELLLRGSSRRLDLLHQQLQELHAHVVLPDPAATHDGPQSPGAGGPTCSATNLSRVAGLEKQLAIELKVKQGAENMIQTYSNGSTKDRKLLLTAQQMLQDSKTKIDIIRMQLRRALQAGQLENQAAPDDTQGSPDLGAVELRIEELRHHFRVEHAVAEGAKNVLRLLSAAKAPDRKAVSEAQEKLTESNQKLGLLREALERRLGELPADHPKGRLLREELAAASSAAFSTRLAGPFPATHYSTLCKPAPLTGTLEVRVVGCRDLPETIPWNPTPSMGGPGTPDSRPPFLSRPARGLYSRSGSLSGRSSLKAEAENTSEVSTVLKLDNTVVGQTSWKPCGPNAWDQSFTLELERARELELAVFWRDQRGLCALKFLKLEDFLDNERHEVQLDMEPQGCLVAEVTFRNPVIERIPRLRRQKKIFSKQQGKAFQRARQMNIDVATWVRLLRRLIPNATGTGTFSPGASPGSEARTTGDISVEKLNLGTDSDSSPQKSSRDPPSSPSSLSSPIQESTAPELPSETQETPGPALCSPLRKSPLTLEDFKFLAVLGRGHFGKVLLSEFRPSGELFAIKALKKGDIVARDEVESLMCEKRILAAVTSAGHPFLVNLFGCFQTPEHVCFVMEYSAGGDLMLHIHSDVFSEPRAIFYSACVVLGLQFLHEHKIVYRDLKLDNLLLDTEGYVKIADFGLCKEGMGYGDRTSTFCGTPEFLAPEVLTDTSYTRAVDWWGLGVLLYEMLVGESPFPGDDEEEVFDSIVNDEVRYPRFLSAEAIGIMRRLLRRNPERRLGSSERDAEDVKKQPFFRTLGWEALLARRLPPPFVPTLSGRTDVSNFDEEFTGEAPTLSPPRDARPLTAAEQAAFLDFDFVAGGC

[7] = biological target: Receptor tyrosine-protein kinase erbB-4 (Homo sapiens, UniProt Q15303); experiment: Selectivity interaction (ProQinase) EUB0000171b ERBB4
Receptor tyrosine-protein kinase erbB-4, sequence (Q15303 whole entry): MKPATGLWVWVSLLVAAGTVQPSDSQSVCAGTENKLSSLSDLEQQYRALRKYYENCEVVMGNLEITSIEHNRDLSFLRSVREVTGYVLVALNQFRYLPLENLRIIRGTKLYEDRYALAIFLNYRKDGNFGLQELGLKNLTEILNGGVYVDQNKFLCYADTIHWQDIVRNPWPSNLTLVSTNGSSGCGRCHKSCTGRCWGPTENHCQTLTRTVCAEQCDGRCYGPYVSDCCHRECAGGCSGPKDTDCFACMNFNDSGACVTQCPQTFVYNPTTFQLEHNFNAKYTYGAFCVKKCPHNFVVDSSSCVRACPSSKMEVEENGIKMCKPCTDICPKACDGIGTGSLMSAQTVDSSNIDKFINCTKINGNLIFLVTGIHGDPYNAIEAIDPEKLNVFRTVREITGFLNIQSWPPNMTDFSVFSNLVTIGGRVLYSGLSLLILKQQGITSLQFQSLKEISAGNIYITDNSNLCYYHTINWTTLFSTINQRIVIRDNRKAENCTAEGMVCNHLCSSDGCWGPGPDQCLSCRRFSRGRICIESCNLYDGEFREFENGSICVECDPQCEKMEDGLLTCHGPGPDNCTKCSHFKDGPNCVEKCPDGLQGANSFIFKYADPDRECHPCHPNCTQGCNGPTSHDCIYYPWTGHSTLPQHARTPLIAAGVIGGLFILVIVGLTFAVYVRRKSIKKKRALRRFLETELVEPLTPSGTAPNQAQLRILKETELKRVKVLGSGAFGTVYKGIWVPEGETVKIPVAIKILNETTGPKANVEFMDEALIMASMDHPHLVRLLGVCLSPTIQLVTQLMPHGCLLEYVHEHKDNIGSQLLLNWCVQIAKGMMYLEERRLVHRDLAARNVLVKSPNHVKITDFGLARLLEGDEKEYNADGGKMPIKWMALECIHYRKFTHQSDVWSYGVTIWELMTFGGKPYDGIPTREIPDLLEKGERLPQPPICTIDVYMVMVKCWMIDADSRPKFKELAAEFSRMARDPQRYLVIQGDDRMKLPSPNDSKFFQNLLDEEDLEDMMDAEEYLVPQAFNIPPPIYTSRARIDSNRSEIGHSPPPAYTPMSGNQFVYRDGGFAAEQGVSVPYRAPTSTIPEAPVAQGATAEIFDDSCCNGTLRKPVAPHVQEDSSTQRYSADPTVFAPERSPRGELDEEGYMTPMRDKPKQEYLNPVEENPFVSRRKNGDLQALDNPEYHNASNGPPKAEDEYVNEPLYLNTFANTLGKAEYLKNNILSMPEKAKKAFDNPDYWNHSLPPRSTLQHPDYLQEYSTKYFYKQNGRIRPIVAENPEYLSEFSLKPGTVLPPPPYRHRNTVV

High affinity nerve growth factor receptor, sequence (P04629 33-796 limits assumed): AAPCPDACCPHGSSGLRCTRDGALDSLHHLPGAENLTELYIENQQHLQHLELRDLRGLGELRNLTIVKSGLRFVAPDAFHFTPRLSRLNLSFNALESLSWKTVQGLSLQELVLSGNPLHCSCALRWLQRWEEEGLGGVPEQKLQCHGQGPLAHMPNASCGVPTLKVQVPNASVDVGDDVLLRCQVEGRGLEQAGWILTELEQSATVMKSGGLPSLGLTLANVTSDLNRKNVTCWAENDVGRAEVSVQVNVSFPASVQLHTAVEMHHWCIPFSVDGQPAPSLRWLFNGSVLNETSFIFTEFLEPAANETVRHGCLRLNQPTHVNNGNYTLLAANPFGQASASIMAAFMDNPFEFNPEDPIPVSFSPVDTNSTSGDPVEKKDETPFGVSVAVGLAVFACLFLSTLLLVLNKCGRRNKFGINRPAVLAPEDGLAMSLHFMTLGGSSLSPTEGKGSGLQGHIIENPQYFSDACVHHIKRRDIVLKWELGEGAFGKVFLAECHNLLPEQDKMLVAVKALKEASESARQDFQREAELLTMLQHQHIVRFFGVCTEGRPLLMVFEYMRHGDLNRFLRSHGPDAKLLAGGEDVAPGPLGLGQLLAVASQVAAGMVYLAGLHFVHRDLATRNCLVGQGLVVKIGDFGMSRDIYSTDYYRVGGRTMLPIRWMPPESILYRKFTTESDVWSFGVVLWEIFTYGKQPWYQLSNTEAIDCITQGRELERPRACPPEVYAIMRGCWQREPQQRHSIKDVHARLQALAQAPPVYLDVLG

## COc1cc(Nc2nc(C)cc(-c3cnn4nc(OC)ccc34)n2)cc(C(F)(F)F)c1
[1]
  % of control: 100%

## C=CC(=O)Nc1ccc(C(=O)Nc2[nH]nc3c2CN(C(=O)N[C@H](CN(C)C)c2ccccc2)C3(C)C)cc1
[2]
  % of engagement: 16.5%

## CC[C@@H]1[C@H](F)C(=O)N[C@@H]1COc1nccc2cc(C(N)=O)c(OC)cc12 [ZIMLOVISERTIB]
[3]
  % of inhibition: 7.4%
[4]; at 0.01 µM
  % of inhibition: 4.3%
[4]; at 0.04 µM
  % of inhibition: -11.1%
[4]; at 0.2 µM
  % of inhibition: -18.3%
[4]; at 1 µM
  % of inhibition: -7.3%
[4]; at 5 µM
  % of inhibition: -18.8%

## CN(C)C/C=C/C(=O)Nc1ccc(C(=O)N2CCCC(Nc3ncc(Cl)c(-c4c[nH]c5ccccc45)n3)C2)cc1 (configuration not stated)
[5]
  % of control: 67%

## N#Cc1cccc(-c2c[nH]c3ncnc(N4CCOCC4)c23)c1
[6]
  % of control: 62%

## C=CC(=O)Nc1cccc(C(=O)Nc2ccc(Nc3cc(-c4[nH]c(SC)nc4C)ccn3)cc2)c1
[7]; at 1 µM
  % of control: 93%
[7]; at 5 µM
  % of control: 90%
